The values that follow come from US20250114374A1, “BCL-2 INHIBITORS” (Newave Pharmaceutical Inc., priority 2021, published 2025).

The assay relates to RS4; 11 with G101V mutation. Briefly: In vitro anti-proliferation assay (ATPlite luminescence) in BCL-2-dependent ALL cell line RS4;11 with G101V mutation. It is filed as cell-based. The note with it: read-out: RS411-G101V IC50. Summed up: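 RS4;11 G101V cells at about 1×10^4 per well were exposed to a range of compound concentrations for about 72 h in medium with 10% FBS. Cellular ATP was measured by ATPlite luminescence after lysis, and IC50 was derived from the dose-response.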

The mark [1] stands for this setting: cellular anti-proliferative IC50, about 72 hours, medium with 10% FBS, ATPlite.

Structures are written as SMILES. Read-outs that look alike come from different tables or passages of the source.

By IC50 is commonly meant the concentration needed to halve the response being measured. `CC(C)Oc1ccccc1[C@@H]1CN(Cc2ccc(F)c(F)c2)CCN1C1CC2(CCN(c3cc(N4c5cc6cc[nH]c6nc5O[C@H]5COCC[C@@H]54)c(C(=O)NS(=O)(=O)c4cc5c(c([N+](=O)[O-])c4)N[C@H](C4CCOCC4)CO5)cc3F)CC2)C1` [Example 227, 4-{2-[(2R)-4-[(3,4-difluorophenyl)methyl]-2-(2-isopropoxyphenyl)piperazin-1-yl]-7-azaspiro[3.5]nonan-7-yl}-2-[(3R,8S)-2,5-dioxa-9,15,17-triazatetracyclo[8.7.0.0^{3,8}.0^{12,16}]heptadeca-1(10),11,13,16-tetraen-9-yl]-5-fluoro-N-[(3R)-5-nitro-3-(oxan-4-yl)-3,4-dihydro-2H-1,4-benzoxazin-7-ylsulfonyl]benzamide]: the IC50 under setting [1] is 119 nM.

For `CC(C)Oc1ccccc1[C@@H]1CN(Cc2ccc(F)c(F)c2)CCN1C1CC2(CCN(c3ncc(C(=O)NS(=O)(=O)c4cc5c(c([N+](=O)[O-])c4)N[C@H](C4CCOCC4)CO5)c(N4c5cc6cc[nH]c6nc5O[C@H]5COCC[C@@H]54)c3F)CC2)C1` [Example 228, 6-{2-[(2R)-4-[(3,4-difluorophenyl)methyl]-2-(2-isopropoxyphenyl)piperazin-1-yl]-7-azaspiro[3.5]nonan-7-yl}-4-[(3R,8S)-2,5-dioxa-9,15,17-triazatetracyclo[8.7.0.0^{3,8}.0^{12,16}]heptadeca-1(10),11,13,16-tetraen-9-yl]-5-fluoro-N-[(3R)-5-nitro-3-(oxan-4-yl)-3,4-dihydro-2H-1,4-benzoxazin-7-ylsulfonyl]pyridine-3-carboxamide], under setting [1], the IC50 was found to be 202 nM.

Turning to `CC(C)Oc1ccccc1[C@@H]1CN([C@H]2COCc3c(F)cc(F)cc32)CCN1C1CC2(CCN(c3ccc(C(=O)NS(=O)(=O)c4cc5c(c([N+](=O)[O-])c4)N[C@H](C4CCOCC4)CO5)c(N4c5cc6cc[nH]c6nc5O[C@H]5COCC[C@@H]54)c3)CC2)C1` [Example 230, 4-(2-((R)-4-((R)-6,8-difluoroisochroman-4-yl)-2-(2-isopropoxyphenyl)piperazin-1-yl)-7-azaspiro[3.5]nonan-7-yl)-N-(((R)-5-nitro-3-(tetrahydro-2H-pyran-4-yl)-3,4-dihydro-2H-benzo[b][1,4]oxazin-7-yl)sulfonyl)-2-((5aS,9aR)-6,7,9,9a-tetrahydro-1H-pyrano[3,4-b]pyrrolo[3′,2′:5,6]pyrido[3,2-e][1,4]oxazin-5(5aH)-yl)benzamide], the IC50 (Homo sapiens, RS4-11, 72 h) is 104 nM.

On to `CC(C)Oc1ccccc1[C@@H]1CN([C@@H]2COCc3c(F)cc(F)cc32)CCN1C1CC2(CCN(c3ccc(C(=O)NS(=O)(=O)c4cc5c(c([N+](=O)[O-])c4)N[C@H](C4CCOCC4)CO5)c(N4c5cc6cc[nH]c6nc5O[C@H]5COCC[C@@H]54)c3)CC2)C1` [Example 231, 4-(2-((R)-4-((S)-6,8-difluoroisochroman-4-yl)-2-(2-isopropoxyphenyl)piperazin-1-yl)-7-azaspiro[3.5]nonan-7-yl)-N-(((R)-5-nitro-3-(tetrahydro-2H-pyran-4-yl)-3,4-dihydro-2H-benzo[b][1,4]oxazin-7-yl)sulfonyl)-2-((5aS,9aR)-6,7,9,9a-tetrahydro-1H-pyrano[3,4-b]pyrrolo[3′,2′:5,6]pyrido[3,2-e][1,4]oxazin-5(5aH)-yl)benzamide], for which, under “Homo sapiens, RS4-11, 72 h”, the IC50 was determined as 94.7 nM.

Take `COc1cc2c(nc1N1CCOC[C@@H]1C)COC[C@H]2N1CCN(C2CC3(CCN(c4ccc(C(=O)NS(=O)(=O)c5cc6c(c([N+](=O)[O-])c5)N[C@H](C5CCOCC5)CO6)c(N5c6cc7cc[nH]c7nc6O[C@H]6COCC[C@@H]65)c4)CC3)C2)[C@H](c2ccccc2OC(C)C)C1` [Example 232, 4-(2-((R)-2-(2-isopropoxyphenyl)-4-((S)-3-methoxy-2-((S)-3-methylmorpholino)-5,8-dihydro-6H-pyrano[3,4-b]pyridin-5-yl)piperazin-1-yl)-7-azaspiro[3.5]nonan-7-yl)-N-(((R)-5-nitro-3-(tetrahydro-2H-pyran-4-yl)-3,4-dihydro-2H-benzo[b][1,4]oxazin-7-yl)sulfonyl)-2-((5aS,9aR)-6,7,9,9a-tetrahydro-1H-pyrano[3,4-b]pyrrolo[3′,2′:5,6]pyrido[3,2-e][1,4]oxazin-5(5aH)-yl)benzamide]: the concentration for half-maximal inhibition (IC50) (Homo sapiens, RS4-11, 72 h) amounted to 84.2 nM.

With `COc1cc2c(nc1N1CCOC[C@@H]1C)COC[C@@H]2N1CCN(C2CC3(CCN(c4ccc(C(=O)NS(=O)(=O)c5cc6c(c([N+](=O)[O-])c5)N[C@H](C5CCOCC5)CO6)c(N5c6cc7cc[nH]c7nc6O[C@H]6COCC[C@@H]65)c4)CC3)C2)[C@H](c2ccccc2OC(C)C)C1` [Example 233, 4-(2-((R)-2-(2-isopropoxyphenyl)-4-((R)-3-methoxy-2-((S)-3-methylmorpholino)-5,8-dihydro-6H-pyrano[3,4-b]pyridin-5-yl)piperazin-1-yl)-7-azaspiro[3.5]nonan-7-yl)-N-(((R)-5-nitro-3-(tetrahydro-2H-pyran-4-yl)-3,4-dihydro-2H-benzo[b][1,4]oxazin-7-yl)sulfonyl)-2-((5aS,9aR)-6,7,9,9a-tetrahydro-1H-pyrano[3,4-b]pyrrolo[3′,2′:5,6]pyrido[3,2-e][1,4]oxazin-5(5aH)-yl)benzamide], the IC50 (Homo sapiens, RS4-11, 72 h) is 4.64 nM.

For the compound `CC(C)Oc1ccccc1[C@@H]1CN(Cc2ccc(F)c(F)c2)CCN1C1CC2(CCN(c3nc(N4c5cc6cc[nH]c6nc5O[C@H]5COCC[C@@H]54)c(C(=O)NS(=O)(=O)c4cc5c(c([N+](=O)[O-])c4)N[C@H](C4CCOCC4)CO5)cc3F)CC2)C1` [Example 234, 6-{2-[(2R)-4-[(3,4-difluorophenyl)methyl]-2-(2-isopropoxyphenyl)piperazin-1-yl]-7-azaspiro[3.5]nonan-7-yl}-2-[(3R,8S)-2,5-dioxa-9,15,17-triazatetracyclo[8.7.0.0^{3,8}.0^{12,16}]heptadeca-1(10),11,13,16-tetraen-9-yl]-5-fluoro-N-[(3R)-5-nitro-3-(oxan-4-yl)-3,4-dihydro-2H-1,4-benzoxazin-7-ylsulfonyl]pyridine-3-carboxamide], the IC50 under setting [1] came to 181 nM.

Turning to `CC(C)Oc1ccccc1[C@@H]1CN(Cc2ccc(F)c(F)c2)CCN1C1CC2(CCN(c3nc(N4c5cc6cc[nH]c6nc5O[C@H]5COCC[C@@H]54)c(C(=O)NS(=O)(=O)c4cc5c(c([N+](=O)[O-])c4)N[C@H](C4CCOCC4)CO5)cc3F)CC2)C1` [Example 235, 6-{2-[(2R)-4-[(3,4-difluorophenyl)methyl]-2-(2-isopropoxyphenyl)piperazin-1-yl]-7-azaspiro[3.5]nonan-7-yl}-2-[(3R,8S)-2,5-dioxa-9,15,17-triazatetracyclo[8.7.0.0^{3,8}.0^{12,16}]heptadeca-1(10),11,13,16-tetraen-9-yl]-5-fluoro-N-[(3R)-5-nitro-3-(oxan-4-yl)-3,4-dihydro-2H-1,4-benzoxazin-7-ylsulfonyl]pyridine-3-carboxamide], under setting [1], the IC50 is 2270 nM.

Take `CC(C)Oc1ccccc1[C@@H]1CN(Cc2ccc(F)c(F)c2)CCN1C1CC2(CCN(c3ccc(C(=O)NS(=O)(=O)c4cc5c(c([N+](=O)[O-])c4)N[C@H](C4CCOCC4)CO5)c(N4c5cc6c(F)c[nH]c6nc5O[C@H]5COCC[C@@H]54)c3)CC2)C1` [Example 236, 4-{2-[(2R)-4-[(3,4-difluorophenyl)methyl]-2-(2-isopropoxyphenyl)piperazin-1-yl]-7-azaspiro[3.5]nonan-7-yl}-2-[(3R,8S)-13-fluoro-2,5-dioxa-9,15,17-triazatetracyclo[8.7.0.0^{3,8}.0^{12,16}]heptadeca-1(10),11,13,16-tetraen-9-yl]-N-[(3R)-5-nitro-3-(oxan-4-yl)-3,4-dihydro-2H-1,4-benzoxazin-7-ylsulfonyl]benzamide]: under setting [1], the IC50 was found to be 5.52 nM.

`CC(C)Oc1ccccc1[C@@H]1CN(Cc2ccc(F)c(F)c2)CCN1C1CC2(CCN(c3ccc(C(=O)NS(=O)(=O)c4cc5c(c([N+](=O)[O-])c4)N[C@H](C4CCOCC4)CO5)c(N4c5cc6cc[nH]c6nc5O[C@@H]5COCC[C@H]54)c3)CC2)C1` [Example 239, 4-{2-[(2R)-4-[(3,4-difluorophenyl)methyl]-2-(2-isopropoxyphenyl)piperazin-1-yl]-7-azaspiro[3.5]nonan-7-yl}-2-[(3S,8R)-2,5-dioxa-9,15,17-triazatetracyclo[8.7.0.0^{3,8}.0^{12,16}]heptadeca-1(10),11,13,16-tetraen-9-yl]-N-[(3R)-5-nitro-3-(oxan-4-yl)-3,4-dihydro-2H-1,4-benzoxazin-7-ylsulfonyl]benzamide]: under setting [1], the IC50 came out at 7.1 nM.

In the case of `CC(C)Oc1ccccc1[C@@H]1CN(Cc2ccc(F)c(F)c2)CCN1C1CC2(CCN(c3ccc(C(=O)NS(=O)(=O)c4cc5c(c([N+](=O)[O-])c4)N[C@H](C4CCOCC4)CO5)c(N4c5cc6cc[nH]c6nc5O[C@H]5CCOC[C@@H]54)c3)CC2)C1` [Example 240, 4-{2-[(2R)-4-[(3,4-difluorophenyl)methyl]-2-(2-isopropoxyphenyl)piperazin-1-yl]-7-azaspiro[3.5]nonan-7-yl}-2-[(3S,8S)-5,9-dioxa-2,11,13-triazatetracyclo[8.7.0.0^{3,8}.0^{12,16}]heptadeca-1(10),11,14,16-tetraen-2-yl]-N-[(3R)-5-nitro-3-(oxan-4-yl)-3,4-dihydro-2H-1,4-benzoxazin-7-ylsulfonyl]benzamide], the IC50 under setting [1] worked out at 6.94 nM.

Consider `CC(C)Oc1ccccc1[C@@H]1CN(Cc2ccc(F)c(F)c2)CCN1C1CC2(CCN(c3ccc(C(=O)NS(=O)(=O)c4cc5c(c([N+](=O)[O-])c4)N[C@H](C4CCOCC4)CO5)c(N4c5cc6cc[nH]c6nc5O[C@@H]5CCOC[C@H]54)c3)CC2)C1` [Example 241, 4-{2-[(2R)-4-[(3,4-difluorophenyl)methyl]-2-(2-isopropoxyphenyl)piperazin-1-yl]-7-azaspiro[3.5]nonan-7-yl}-2-[(3R,8R)-5,9-dioxa-2,11,13-triazatetracyclo[8.7.0.0^{3,8}.0^{12,16}]heptadeca-1(10),11,14,16-tetraen-2-yl]-N-[(3R)-5-nitro-3-(oxan-4-yl)-3,4-dihydro-2H-1,4-benzoxazin-7-ylsulfonyl]benzamide], for which the IC50 under setting [1] is 4.45 nM.
